{"source": "paper PMC8599855", "about": "“Detection of cancer stem cells by EMT-specific biomarker-based peptide ligands” (Scientific Reports, 2021)", "key": {"[1]": {"conditions": "UNC0642 5 mg/kg body weight, UBC xenograft model, any time point post-treatment; cited from earlier work", "text": "In the current study, we successfully established a protocol for EMT induction via the combination of the G9a inhibitor and low-dose IR. G9a, mainly catalyzes histone H3K9 methylation, is shown to be overexpressed in many types of cancers, including gastric cancer, ovarian cancer, head and neck cancer, etc. Higher G9a expression levels represent higher methylation levels, thus leading to the transcriptional repression of tumor-suppressor genes and are also associated with poor prognosis in patients. Liu et al. explored that snail-induced EMT and repression of E-cadherin in head and neck sq ..."}, "SAS cells": {"system": "SAS cells", "assay": "Western blot of EMT/CSC markers after in vitro induction of EMT", "assay_type": "cell-based, human", "method": "To induce the EMT of SAS cells, cells were seeded in 60 mm^2 dishes at the density of 1 × 10^6 cells/dish overnight and incubated with 1.25 and 10 μM Unc0642. After 24 h, cells were exposed under 2 Gy and 4 Gy of radiation by a RS2000 Series Biological Irradiator (Rad Source Technologies Inc, Buford, GA, USA) and replaced with fresh Unc0642 containing medium every 24 h. The expression of vimentin and E-cadherin were detected by western blotting.\nCultured cells were placed on ice, washed by ice-cold PBS and lysed using CytoBuster Protein Extraction Reagent (cat. 71,009, Bedford, MA, USA) containing Protease Inhibitor Cocktail Set I (cat. 539131, Millipore, Bedford, MA, USA). Cells were then scraped, collected in Eppendorf tubes and the sonicated for 30 min. The lysate was spun down at 12,000 g for 10 min at 4 °C. The protein content was measured using Bradford reagent (BIO-RAD, Hercules, CA, USA). The equal amounts of protein (40 μg) were separated in SDS-PAGE gels (30% Acrylamide/Bis Solution, 29:1, cat. 1610157, BIO-RAD, Hercules, CA, USA) and transferred to PVDF membranes (cat. NEF1002001PK, Perkin-Elmer life sciences, Boston, MA, USA). For immunoblotting, membranes were cut in terms of the molecular weight range prior to hybridization with primary antibody for vimentin (GTX100619, GeneTex, Irvine, CA, USA), nucleolin (GTX132778, GeneTex, Irvine, CA, USA), E-cadherin (GTX50757, GeneTex, Irvine, CA, USA) and b-actin (GTX109639, GeneTex, Irvine, CA, USA) overnight at 4 °C and then incubated with horseradish peroxidase HRP-conjugate goat anti-rabbit IgG (GeneTex, Irvine, CA, USA). Protein signals were visualized using a LumiFast Chemiluminescence Detection Kit (cat. JT96-K001S, T-Pro Biotechnology, Taiwan). Image capture was performed on an ImageQuant LAS4000 biomolecular image (GE healthcare life, Chicago, IL, USA). The intensities of protein bands were quantitated using ImageJ Gel Analysis program. Quantification of protein expression was performed by Image J. b-actin was used as loading control."}, "[2]": {"assay": "Body weight of xenograft mice", "assay_type": "in vivo, mouse", "method": "All animal procedures were performed in accordance with the Guide for Care and Use of Laboratory Animals and National Yang-Ming University’s IACUC number was 1080110. Immunodeficient male mice (BALB/cAnNCrj-nu/nu, six weeks old, 20 gm) were provided by National Laboratory Animal Center (NLAC), NARLabs, Taiwan. Mice were group-housed (6 animals per cage) in individually ventilated cages (IVC) systems and had unlimited access to food and water. […] For establishment of xenografts, 2 × 10^6 SAS-EGFP-Fluc cells in 100 μL phosphate-buffered saline (PBS) were injected subcutaneously into the animal's right shoulder and 2 × 10^6 SAS-wt cells were injected into the left leg. Growth of the implanted tumors was monitored twice a week and tumor volumes were estimated from caliper measurements according to the following formula: tumor volume = (lengthÍwidth^2) Í0.523. When tumor size reached approximately 10 mm^3, the mice were randomized into four groups of five animals per group for the following treatments: (1) DMSO (1 ml/kg body weight), (2) Unc0642 (2.5 mg/kg body weight), (3) 2 Gy of radiation, (4) Unc0642 (2.5 mg/kg body weight) and 2 Gy of radiation. Mice were given Unc0642 (cat. SML1037, Sigma-Aldrich, St. Louis, MO) intraperitoneally (i.p) every two days for 3 times. […]"}}}
{"smiles": "COc1cc2c(NC3CCN(C(C)C)CC3)nc(N3CCC(F)(F)CC3)nc2cc1OCCCN1CCCC1", "note": "[Unc0642]", "values": [{"measurement": "Body weight versus vehicle-treated group", "setting": "[1]", "value": "no significant weight changes"}, {"measurement": "Vimentin expression", "setting": "SAS cells; 1.25 μM Unc0642, western blot", "value": "increased"}, {"measurement": "Nucleolin level", "setting": "SAS cells; 1.25 μM Unc0642, western blot, p < 0.05", "value": "slightly increased"}, {"measurement": "Vimentin expression", "setting": "SAS cells; 10 μM Unc0642, western blot", "value": "almost unchanged"}, {"measurement": "Vimentin expression versus control SAS cells", "setting": "SAS cells; 2 Gy of IR and 1.25 μM Unc0642, western blot normalized to b-actin, p < 0.01", "value": "~ twofold"}, {"measurement": "E-cadherin protein expression", "setting": "SAS cells; Unc0642 alone, western blot", "value": "diminished protein expression level"}, {"measurement": "Body weight versus DMSO control", "setting": "[2]; Unc0642 2.5 mg/kg i.p. alone", "value": "no difference"}, {"measurement": "Body weight", "setting": "[2]; combined Unc0642 2.5 mg/kg i.p. and 2 Gy IR, until end point, p < 0.001", "value": "Drastic weight loss"}]}
